According to patent publication US10537100B2, “Substituted methylenedioxybenzyl compounds and their use as synergists” (Endura SPA, priority 2015, dated 2020):
Marks after values point to notes of the source that are not given here.

Key:
Type in all cases: in vivo
[1] = tested on: Myzus persicae clone highly resistant to insecticide; test: Contact test on treated plant (pea seedling dip), synergist with neonicotinoid; settings: synergist 1 g/L, mortality assessed at 48 hours, Abbott's formula
Protocol: Laboratory bred Myzus persicae clone highly resistant to insecticide, derived from a field collected population after control failure, mixed age apterous parthenogenetic females adults, were assayed for the test.
Four (4) different commercially available formulated insecticides were used and diluted as follow: • imidacloprid: 1000 mL of test solution was prepared diluting in water 20 μL of commercial formulation, containing 200 g/L of a.i., equivalent to 0.004 g of imidacloprid per liter of insecticidal solution; • thiacloprid: 1000 mL of test solution was prepared diluting in water 24 μL of commercial formulation containing 480 g/L of a.i, equivalent to 0.012 g of thiacloprid per liter of insecticidal solution;
The compounds of Example 1 and Example 2 were formulated in the form of emulsified concentrate (EC).
The following amount of the EC formulations were added to the above described insecticidal solution of insecticide to have a final concentration of synergist equal to 1 g/L:
20 mL of test formulations were used to wet by dipping for 5″ a small pea seedling (1-1.5 cm long). Seedlings were left at room temperature in a fume hood and allowed to dry for 15″. After drying 10-15 apterous parthenogenetic females were moved to the seedling and allowed to settle. Mortality produced by pyrethroids was assessed 24 hours later. Mortality produced by neonicotinoids was assessed 48 hours later.
Three replicates were executed each composed by 2 subreplicates (seedlings) and 60-90 specimens were used per test formulation.
In parallel with the test, the mortality of aphids in an untreated control replicate (seedlings dipped in water) was determined using the same conditions and methods.
The efficacy was calculated according the Abbott's formula: […]

Musca domestica = test: Contact test on treated glass surfaces, synergist with cypermethrin
Protocol: Laboratory bred Musca domestica species, 4-5 days old mixed sex imagoes derived from a field collected strain were assayed for the test. 1000 ml of test solutions were prepared diluting in water 6.06 grams of cypermethrin commercial formulation, equivalent to 0.224 g of cypermethrin per liter of insecticidal solution and a suitable amount of synergist such as to have a ratio between cypermethryn and synergists=1:13. The synergists were formulated in the form of emulsified concentrate (EC). The following amount of the formulations of synergist EC were added to the above described insecticidal solution of cypermethrin.
3.83 g of EC formulation containing 77.1% (w/w) of the compound of Example 2 (5-n-butyl-6-((prop-2-ynyloxy)methyl)benzo[d][1,3]dioxole)
3.57 g of EC formulation containing 83% (w/w) of the comparison compound 5-(but-2-ynyloxymethyl)-6-n-propyl-benzo[1,3]dioxole (EN126) corresponding to 2.95 g of the compound of the invention and of the comparison product per liter of test formulation
1 ml of each test formulation was applied to each individual grass surface of 100 cm^2 by means of a hand held pump sprayer on a scale measuring by 2 decimal precision, being the acceptable limit of divergence: +/−10%. The treated glass surfaces were left at room temperature for 24 hours after treatment and prior to be used. 40 mixed sex Musca domestica imagoes (20 males and 20 females) were selected and placed into a 500 cm^3 glass cylinders covered with an untreated glass surface until the start of the study. Five replicates were executed, altogether 200 houseflies (100 males and 100 females) were used per test formulation. At the beginning of the test, the untreated glass covering the glass cylinder was replaced with a glass surface treated with the test formulation. The exposure time was 30 minutes. After this period of time, the treated glass surfaces were removed and replaced with untreated ones. During the test water and food (water/sugar solution) were provided to the test insect inside the glass cylinders
In parallel with the test, the mortality of flies in an untreated control replicate was determined using the same conditions and methods. Throughout the control test, non-treated glass surfaces covered the glass cylinders. The maximum mortality rate allowed within the control group to consider the test representative was 10% after 24 hours. If above this value, the test was not considered representative and was repeated. During the trials, no deviance has been noted.
The test conditions were as follows: • temperature: 23-25° C. • relative humidity: min. 60% • light regime: 12 hrs dark/12 hrs natural illumination.
The reading intervals of the number of knocked down flies were: 10-20-30-40-50-60-90-120-180 minutes. Mortality was determined after 24 hours.
The efficacy was calculated according the following formula

Blattella germanica = test: Contact test on treated glass vials, synergist with cypermethrin; settings: cypermethrin 120 μg/mL, synergist 1.0 g/L; for knock down: average of 4 repetitions
Protocol: Laboratory bred B. germanica species, mixed ages (pre-immaginal and imagoes) and mixed sex were assayed for the test.
An insecticide stock solution was prepared with 150 μL of cypermethrin commercial formulation and diluted to 15 μL/mL with technical acetone to a final volume of 10 mL. The solution contained 450 μg/mL of cypermethrin per liter of insecticidal solution
Stock solution of the compounds of Example 1 and Example 2 were prepared dissolving around 10 mg of EC formulations containing compounds of the Example 1 and Example 2 in technical acetone to have a final concentration of 1.365 μg/mL.
Stock solution (1650 μL) was diluted to 2250 μL with acetone or with stock of insecticide in acetone to have respectively a final concentration of 1 g/L of synergist (as active ingredient) or 0.12 g/L of cypermethrin+1 g/L of the compounds of Example 1 and Example 2. Insecticide alone was prepared adding 600 μL of stock solution to 1650 μL of acetone.
Glass vials (internal surface 35 cm^2) were treated with 350 μL of insecticide solution and allowed to dry in a fume hood on a vial rotator and used as soon as the acetone was fully evaporated.
B. germanica specimens were introduced singly in vials. 20 specimens were tested for each combination of product. The exposure time to product residues was 30 minutes. After this duration the specimens were transferred to an untreated vial ad provided with food and water.
In parallel within the test, a control study has been set up with the same conditions and methods using acetone only treated vials.
The test conditions were as follows: • temperature: 22-24° C. during knock down evaluation (t: 0-30′); 26° C. during mortality assessment (t: 24 h) • relative humidity: min. 60% • light regime: 8 hrs dark/16 hrs natural illumination.
The reading intervals of the number of knocked down and the number of dead insects were: 5-10-15-20-25-30 minutes. A final reading was done 24 hours after the starting of the exposure.
The calculation model of efficacy is according to Abbott's formula (Abbott W S (1925) A method for computing the effectiveness of an insecticide. J. Econ. Entomol. 18: 265-267):
The results are reported in the following Table 5 and represent an average of 4 repetitions.

N#C/N=C1\SCCN1Cc1ccc(Cl)nc1 [thiacloprid, reference compound]
Efficacy of the tested compounds ([1]; thiacloprid (0.012 g per liter)): 36.242

O=[N+]([O-])NC1=NCCN1Cc1ccc(Cl)nc1 [Imidacloprid, imidacloprid, reference compound]
Efficacy of the tested compounds ([1]; Imidacloprid (0.004 g per liter)): 14.2

CC1(C)C(C=C(Cl)Cl)C1C(=O)OC(C#N)c1cccc(Oc2ccccc2)c1 (centres unmarked) [Cypermethrin, cypermethrin]
mortality by % (Musca domestica; 24 h, 30 min exposure, cypermethrin formulation 6.06 g/l (0.224 g/l a.i.), cypermethrin:synergist 1:13): 61% | Efficacy % (Musca domestica; calculated from 24 h mortality against untreated control): 58.95% | knock down by % (Musca domestica; reading at 10′, 30 min exposure, cypermethrin formulation 6.06 g/l (0.224 g/l a.i.), cypermethrin:synergist 1:13): 6* % | knock down by % (Musca domestica; reading at 20′, 30 min exposure, cypermethrin formulation 6.06 g/l (0.224 g/l a.i.), cypermethrin:synergist 1:13): 46% | knock down by % (Musca domestica; reading at 30′, 30 min exposure, cypermethrin formulation 6.06 g/l (0.224 g/l a.i.), cypermethrin:synergist 1:13): 68% | knock down by % (Musca domestica; reading at 40′, 30 min exposure, cypermethrin formulation 6.06 g/l (0.224 g/l a.i.), cypermethrin:synergist 1:13): 83% | knock down by % (Musca domestica; reading at 50′, 30 min exposure, cypermethrin formulation 6.06 g/l (0.224 g/l a.i.), cypermethrin:synergist 1:13): 85% | knock down by % (Musca domestica; reading at 60′, 30 min exposure, cypermethrin formulation 6.06 g/l (0.224 g/l a.i.), cypermethrin:synergist 1:13): 85% | knock down by % (Musca domestica; reading at 90′, 30 min exposure, cypermethrin formulation 6.06 g/l (0.224 g/l a.i.), cypermethrin:synergist 1:13): 82% | knock down by % (Musca domestica; reading at 120′, 30 min exposure, cypermethrin formulation 6.06 g/l (0.224 g/l a.i.), cypermethrin:synergist 1:13): 76% | knock down by % (Musca domestica; reading at 180′, 30 min exposure, cypermethrin formulation 6.06 g/l (0.224 g/l a.i.), cypermethrin:synergist 1:13): 73% | mortality at 120 µg/mL (Blattella germanica; Blattella germanica, 24 h after start of 30 min exposure, Abbott's formula): 22.9% | knock down (Blattella germanica; reading at 5′): 0 | knock down (Blattella germanica; reading at 10′): 6.7 | knock down (Blattella germanica; reading at 15′): 20 | knock down (Blattella germanica; reading at 20′): 40 | knock down (Blattella germanica; reading at 25′): 56.7 | knock down (Blattella germanica; reading at 30′): 60
